From article PMC7094952 (Nature, 2010) come the findings set out here.

Usually EC50 stands for the concentration at which the effect is half-maximal. One may read the half-life as the time needed for the level to fall by half in the phase considered. Read a low half-life as fast loss. A word on the EC90: it is the point of the concentration-response curve where the effect stands at 90%. What is called CC50 is the concentration that lowers cell viability or growth by half. A higher CC50 goes with better tolerance by the cells.

≈ marks a conversion by molar mass, not a printed value. Where “and” joins values, the source holds several entries; their conditions need not be identical. Identical values can stand only once. Entries after “also recorded” stand apart in the source; their conditions may differ. Like-named read-outs stand apart in the source and are kept apart here.

The target in data set [1] is T1, genotype 1b HCV NS5A (Hepatitis C virus genotype 1b, UniProt Q9WMX2, S2204I).
T1 sequence (Q9WMX2 1973-2419 S2204I limits assumed): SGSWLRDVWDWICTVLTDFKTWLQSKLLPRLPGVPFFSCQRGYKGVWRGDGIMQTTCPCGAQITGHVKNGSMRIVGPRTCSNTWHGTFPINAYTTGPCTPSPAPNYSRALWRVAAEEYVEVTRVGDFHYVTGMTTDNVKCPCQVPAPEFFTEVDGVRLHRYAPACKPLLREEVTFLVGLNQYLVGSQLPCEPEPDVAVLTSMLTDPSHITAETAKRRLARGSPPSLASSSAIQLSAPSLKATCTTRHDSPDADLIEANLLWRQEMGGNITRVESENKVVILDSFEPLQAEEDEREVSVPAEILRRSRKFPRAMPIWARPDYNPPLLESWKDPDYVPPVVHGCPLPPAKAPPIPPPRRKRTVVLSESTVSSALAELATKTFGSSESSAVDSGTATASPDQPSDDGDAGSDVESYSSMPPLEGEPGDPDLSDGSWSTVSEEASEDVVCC
The data set is described as follows: NS5A inhibitor binding assay. The note with it: 1 μM, genotype 1b replicon cells, about 18 h, streptavidin agarose beads, immunoblot.

For data set [2], the system named is HCV replicon genotype 1b, Con1. Briefly: HCV genotype 1b. In kind it is cell-based. The note with it: Hepatitis C virus, GETYPE1B, read-out: EC50 (subgenomic viral RNA replication).
Data set [3] addresses HCV NS3 (Hepatitis C virus genotype 1b, UniProt Q9WMX2). Briefly: Biotin/streptavidin pull-down, immunoblot for NS3. It counts as binding. As to conditions: genotype 1b replicon cells.
Data set [4] deals with T2, BVDV NS5A (Bovine viral diarrhea virus, UniProt P19711).
T2 sequence (P19711 2774-3269 limits assumed): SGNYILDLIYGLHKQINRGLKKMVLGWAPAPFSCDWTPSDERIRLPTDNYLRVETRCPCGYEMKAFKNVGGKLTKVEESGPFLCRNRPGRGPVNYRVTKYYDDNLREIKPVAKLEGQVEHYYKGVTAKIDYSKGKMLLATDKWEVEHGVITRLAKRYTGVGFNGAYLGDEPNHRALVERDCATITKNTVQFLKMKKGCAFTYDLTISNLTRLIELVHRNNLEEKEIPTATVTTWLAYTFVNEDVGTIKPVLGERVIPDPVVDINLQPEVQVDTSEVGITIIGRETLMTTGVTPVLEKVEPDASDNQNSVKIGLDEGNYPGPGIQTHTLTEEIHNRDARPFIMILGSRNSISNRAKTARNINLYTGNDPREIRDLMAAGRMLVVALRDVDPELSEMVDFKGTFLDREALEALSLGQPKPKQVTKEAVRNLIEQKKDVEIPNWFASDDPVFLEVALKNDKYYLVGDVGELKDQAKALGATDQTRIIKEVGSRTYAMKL
Briefly: Biotin/streptavidin pull-down in BVDV replicons. The note with it: replicons expressing BVDV RNA. In kind it is binding, bovine viral diarrhoea virus. In general terms: Replicon systems follow genome replication, usually without infectious particles.

In data set [5] the test system is Y93H replicon. The data set is described as follows: Y93H replicon assay. As to conditions: Hepatitis C virus. In kind it is cell-based.
In data set [6] the target is HCV NS5B (Hepatitis C virus genotype 1b, UniProt Q9WMX2). Briefly: Biotin/streptavidin pull-down, immunoblot for NS5B. The note with it: genotype 1b replicon cells. It counts as binding. (In western blotting, separated proteins are transferred to a membrane and probed.)
In data set [7] the test system is HCV genotype 1b. In kind it is in vivo, human. The note with it: for mean reduction in HCV viral load / range of reduction in HCV viral load: genotype 1b subjects, 24 h.
The subject of data set [8] is panel of 10 RNA and DNA viruses. The data set is described as follows: organism not typed. In kind it is cell-based.
Data set [9] deals with BVDV replicon. The data set is described as follows: BVDV replicon. It counts as cell-based, bovine viral diarrhoea virus. The note with it: Bovine viral diarrhea virus isolates and strains, Huh-7, in Bos taurus.
Data set [10] deals with HCV genotype 1. Briefly: Single ascending-dose study in HCV-infected subjects: plasma HCV RNA. It counts as in vivo, human.
A short description of data set [11]: Preclinical pharmacokinetics. In kind it is in vivo, four preclinical species.
The subject of data set [12] is HCV replicons of genotypes 1a, 1b, 2a, 3a, 4a and 5a. Briefly: HCV replicons, all genotypes tested. In kind it is cell-based. The note with it: Hepatitis C virus, read-out: EC50 values, all genotypes tested.
A short description of data set [13]: Battery of in vitro receptor binding and enzymatic assays. The note with it: assessment of promiscuity.
Data set [14] concerns genotype 1a replicon. Briefly: Genotype 1a replicon assay with 40% human serum. It counts as cell-based. The note with it: Hepatitis C virus, GETYPE1A, read-out: EC90 (protein-binding-adjusted).
Data set [15] has as its system HCV replicon. Briefly: HCV replicon inhibitor combination studies. It counts as cell-based, hepatitis C virus. The note with it: overall.
A short description of data set [16]: Single ascending-dose study in healthy, non-HCV-infected subjects. In kind it is in vivo, human.
Data set [17] concerns genotype 1a replicon cells. The data set is described as follows: HCV replicon combination study with NS3 inhibitor in genotype 1a replicon cells. It counts as cell-based, hepatitis C virus. The note with it: ITMN-191, overall.
Data set [18] concerns genotype 1b replicon. The data set is described as follows: Genotype 1b replicon assay with 40% human serum. It counts as cell-based. As to conditions: Hepatitis C virus, GETYPE1B, read-out: EC90 (protein-binding-adjusted).
Data set [19] is described as follows: Cytotoxicity in Huh-7 cells. In kind it is cell-based. As to conditions: human, Huh-7 cells (liver).
Data set [20] deals with HCV genotype 1a. It counts as in vivo, human. The note with it: genotype 1a subjects, 24 h.
Data set [21] relates to Infectious BVDV. Briefly: BVDV cell protection assay. It counts as cell-based, bovine viral diarrhoea virus. The note with it: Bovine viral diarrhea virus isolates and strains, MDBK, in Bos taurus.
Data set [22] has as its system HCV genotype 1a replicon (NS5A variants). The data set is described as follows: Transient replication assay, genotype 1a wild type and resistant variants. As to conditions: Hepatitis C virus, GETYPE1A, most resistant 1a variant, L31V. It counts as cell-based.
[23] abbreviates: 1 mg single dose, 24 h after administration.

For `O=C1N[C@H]2[C@H](CS[C@H]2CCCCC(=O)N2CCC[C@@H]2C(=O)Nc2ccc(/C=C/c3ccc(NC(=O)[C@H]4CCCN4C(=O)Cc4ccccc4)cc3)cc2)N1` [Compound 2], the “Binding to HCV NS5A (pull-down)” value in [1] was “does not”.

For `O=C1N[C@H]2[C@H](CS[C@H]2CCCCC(=O)N2CCC[C@H]2C(=O)Nc2ccc(/C=C/c3ccc(NC(=O)[C@@H]4CCCN4C(=O)Cc4ccccc4)cc3)cc2)N1` [Compound 1], the EC50 was 0.033 µM in data set [2] and above 10 µM in [5]. Further, the NS3 in pull-down result in [3] is given as “not detected”. The “Binding to BVDV NS5A (pull-down)” value in [4] is “failed to bind”. In addition, the “Binding to HCV NS5A (pull-down)” value in data set [1] is recorded as “pulled down efficiently; also recorded: binds”. For the same molecule, in [6], the NS5B in pull-down result was “not detected”.

Turning to `COC(=O)N[C@H](C(=O)N1CCC[C@H]1c1ncc(-c2ccc(-c3ccc(-c4cnc([C@@H]5CCCN5C(=O)[C@@H](NC(=O)OC)C(C)C)[nH]4)cc3)cc2)[nH]1)C(C)C` [BMS-790052], the “HCV RNA measurement at hour 144” value in [7] (100 mg single dose, two individual subjects with genotype 1b) is “less than 25 IU ml^-1 and 35 IU ml^-1”. For the same molecule, the “mean reduction in HCV viral load” value in [7] (10 mg) amounted to 3.6 log10; in data set [7] (100 mg), 3.1 log10; in data set [10] (setting [23]), 1.8 log10; in data set [20] (1 mg), 1.8 log10; in [20] (10 mg) it was 2.9 log10; in data set [20] (100 mg) it was 3.6 log10. Moreover, the “range of reduction in HCV viral load” value is 3.1–4.0 log10 in [7] (10 mg); 2.7–3.4 log10 in data set [7] (100 mg); 0.2–3.0 log10 in data set [10] (setting [23]); 0.2–3.0 log10 in data set [20] (1 mg); 2.9–3.0 log10 in [20] (10 mg); 3.5–3.6 log10 in [20] (100 mg). The EC50 was above 10 µM in data set [8]; 9 µM in data set [9]; 0.009 to 0.146 nM in [12]; 12 µM in data set [21]; around 0.02 µM in data set [22]. Besides, in data set [10] (100 mg single dose), the “mean maximal HCV RNA decline” value is recorded as 3.6 log10. Moreover, in [10] (100 mg single dose), the “range of maximal HCV RNA decline” value is reported as 3.0–4.1 log10. Also, the “Headache (most frequent adverse event), subjects reporting” value (HCV-infected subjects) was “four”. Moreover, the Safety and tolerability result (HCV-infected subjects, single oral doses up to 100 mg) is “safe and well tolerated”; the Safety and tolerability entry in data set [16] (healthy subjects, single oral doses up to 200 mg) was “safe and well tolerated”. Further, for the setting “both, human, plasma, po”, the half-life lay within 10 to 14 h. Also, in [11] (four preclinical species), the Oral bioavailability entry is “orally bioavailable”. In addition, in data set [11] (preclinical species), the Liver distribution entry is given as “distributes effectively to the liver”. For the same molecule, the “Effects in battery of in vitro receptor binding and enzymatic assays” value in data set [13] is “no significant effects”. Moreover, the EC90 in [14] amounted to 0.28 ng/mL (≈ 0.379 nM); in [18], 0.04 ng/mL (≈ 0.0541 nM). For the same molecule, the “Combination effect with Interferon-α2β (intron A)” value in data set [15] is “Synergistic”. Further, the “Combination effect with nucleoside NS5B polymerase inhibitor NM-107” value in [15] is “Additive/synergistic”. Moreover, the “Combination effect with non-nucleoside NS5B polymerase inhibitor” value in [15] (palm site II allosteric inhibitor) is reported as “Additive/synergistic”. The “Drug concentrations at and beyond 24 h post-dose” value in data set [16] (all healthy subjects, versus EC90 for genotypes 1a and 1b) was “greater than the protein-binding-adjusted EC90”. Further, the Exposure versus dose entry in data set [16] (healthy subjects, 1 to 200 mg oral solution) is “dose-proportional exposures”. Further, the “Absorption after oral administration” value in [16] (healthy subjects, oral solution) is listed as “readily absorbed”. In addition, the “Combination effect with NS3 protease inhibitor” value in data set [17] is given as “Additive/synergistic”. Besides, it took 17 ± 1 µM to reach half-maximal cytotoxicity in [19] (CC50).
